These compounds were tested against CDK2/Cyclin E1 (Homo sapiens (Human), UniProt P24941) (assay: CDK2/Cyclin E1 HTRF enzyme activity assay (Example A)). Conditions: 1 mM ATP.
Type: biochemical
Protocol: Assays were conducted in white 384-well polystyrene plates in a final reaction volume of 8 μL. […] HTRF signals were read after 1 hour at room temperature on a PHERAstar FS plate reader (BMG Labtech). Data was analyzed with IDBS XLFit and GraphPad Prism 5.0 software using a three or four parameter dose response curve to determine IC50 for each compound.

Q: With `CS(=O)(=O)N1CCC(Nc2ncc(C(F)(F)F)c(-c3cn(-c4ccc(CN5CC[C@@H](O)C5)cc4C#N)cn3)n2)CC1` [Example 342, (R)-5-((3-Hydroxypyrrolidin-1-yl)methyl)-2-(4-(2-((1-(methylsulfonyl)piperidin-4-yl)amino)-5-(trifluoromethyl)pyrimidin-4-yl)-1H-imidazol-1-yl)benzonitrile] as the compound, how does the IC50 read?
A: ≤ 50 nM

Q: With `CS(=O)(=O)N1CCC(Nc2ncc(C(F)(F)F)c(-c3cn(-c4ccc(CNC5CC5)cc4C#N)cn3)n2)CC1` [Example 343, 5-((Cyclopropylamino)methyl)-2-(4-(2-((1-(methylsulfonyl)piperidin-4-yl)amino)-5-(trifluoromethyl)pyrimidin-4-yl)-1H-imidazol-1-yl)benzonitrile] as the compound, how does the IC50 read?
A: ≤ 50 nM

Q: For `CN1CCN(Cc2ccc(-n3cnc(-c4nc(NC5CCN(S(C)(=O)=O)CC5)ncc4C(F)(F)F)c3)c(C#N)c2)CC1` [Example 344, 5-((4-Methylpiperazin-1-yl)methyl)-2-(4-(2-((1-(methylsulfonyl)piperidin-4-yl)amino)-5-(trifluoromethyl)pyrimidin-4-yl)-1H-imidazol-1-yl)benzonitrile], which IC50 is on record?
A: ≤ 50 nM

Q: With `CS(=O)(=O)N1CCC(Nc2ncc(C(F)(F)F)c(-c3cn(-c4ccc(CN5CCCCC5)cc4C#N)cn3)n2)CC1` [Example 345, 2-(4-(2-((1-(Methylsulfonyl)piperidin-4-yl)amino)-5-(trifluoromethyl)pyrimidin-4-yl)-1H-imidazol-1-yl)-5-(piperidin-1-ylmethyl)benzonitrile] as the compound, how does the IC50 read?
A: ≤ 50 nM

Q: `CS(=O)(=O)N1CCC(Nc2ncc(C(F)(F)F)c(-c3cn(-c4ccc(CN5CCCC5)cc4C#N)cn3)n2)CC1` [Example 346, 2-(4-(2-((1-(Methylsulfonyl)piperidin-4-yl)amino)-5-(trifluoromethyl)pyrimidin-4-yl)-1H-imidazol-1-yl)-5-(pyrrolidin-1-ylmethyl)benzonitrile] was tested. Which IC50 did it give?
A: ≤ 50 nM

Q: For `CS(=O)(=O)N1CCC(Nc2ncc(C(F)(F)F)c(-c3cn(-c4c(F)cc(CNC5CC5)cc4F)cn3)n2)CC1` [Example 347, 4-(1-(4-((Cyclopropylamino)methyl)-2,6-difluorophenyl)-1H-imidazol-4-yl)-N-(1-(methylsulfonyl)piperidin-4-yl)-5-(trifluoromethyl)pyrimidin-2-amine], which IC50 is on record?
A: ≤ 50 nM

Q: With `CC(C)NCc1cc(F)c(-n2cnc(-c3nc(NC4CCN(S(C)(=O)=O)CC4)ncc3C(F)(F)F)c2)c(F)c1` [Example 348] as the compound, how does the IC50 read?
A: ≤ 50 nM

Q: How did the IC50 turn out when `CCNCc1cc(F)c(-n2cnc(-c3nc(NC4CCN(S(C)(=O)=O)CC4)ncc3C(F)(F)F)c2)c(F)c1` [Example 349, 4-(1-(4-((Ethylamino)methyl)-2,6-difluorophenyl)-1H-imidazol-4-yl)-N-(1-(methylsulfonyl)piperidin-4-yl)-5-(trifluoromethyl)pyrimidin-2-amine] was run?
A: ≤ 50 nM

Q: For `CNCc1cc(F)c(-n2cnc(-c3nc(NC4CCN(S(C)(=O)=O)CC4)ncc3C(F)(F)F)c2)c(F)c1` [Example 350, 4-(1-(2,6-Difluoro-4-((methylamino)methyl)phenyl)-1H-imidazol-4-yl)-N-(1-(methylsulfonyl)piperidin-4-yl)-5-(trifluoromethyl)pyrimidin-2-amine], which IC50 is on record?
A: ≤ 50 nM

Q: With `CCN1CCN(Cc2cc(F)c(-n3cnc(-c4nc(NC5CCN(S(C)(=O)=O)CC5)ncc4C(F)(F)F)c3)c(F)c2)CC1` [Example 351, 4-(1-(4-((4-Ethylpiperazin-1-yl)methyl)-2,6-difluorophenyl)-1H-imidazol-4-yl)-N-(1-(methylsulfonyl)piperidin-4-yl)-5-(trifluoromethyl)pyrimidin-2-amine] as the compound, how does the IC50 read?
A: ≤ 50 nM

Q: How did the IC50 turn out when `CN1CCN(Cc2cc(F)c(-n3cnc(-c4nc(NC5CCN(S(C)(=O)=O)CC5)ncc4C(F)(F)F)c3)c(F)c2)CC1` [Example 352, 4-(1-(2,6-Difluoro-4-((4-methylpiperazin-1-yl)methyl)phenyl)-1H-imidazol-4-yl)-N-(1-(methylsulfonyl)piperidin-4-yl)-5-(trifluoromethyl)pyrimidin-2-amine] was run?
A: ≤ 50 nM

Q: For `COC1CN(Cc2ccc(-n3cc(-c4nc(NC5CCN(S(C)(=O)=O)CC5)ncc4C(F)(F)F)nc3C)c(F)c2)C1` [Example 353, 4-(1-(2-Fluoro-4-((3-methoxyazetidin-1-yl)methyl)phenyl)-2-methyl-1H-imidazol-4-yl)-N-(1-(methylsulfonyl)piperidin-4-yl)-5-(trifluoromethyl)pyrimidin-2-amine], which IC50 is on record?
A: ≤ 50 nM

Q: How did the IC50 turn out when `Cc1nc(-c2nc(NC3CCN(S(C)(=O)=O)CC3)ncc2C(F)(F)F)cn1-c1ccc(CN2CC(C)(O)C2)cc1F` [Example 354, 1-(3-Fluoro-4-(2-methyl-4-(2-((1-(methylsulfonyl)piperidin-4-yl)amino)-5-(trifluoromethyl)pyrimidin-4-yl)-1H-imidazol-1-yl)benzyl)-3-methylazetidin-3-ol] was run?
A: ≤ 50 nM

Q: `Cc1nc(-c2nc(NC3CCN(S(C)(=O)=O)CC3)ncc2C(F)(F)F)cn1-c1ccc(CN2CC(O)C2)cc1F` [Example 355, 1-(3-Fluoro-4-(2-methyl-4-(2-((1-(methylsulfonyl)piperidin-4-yl)amino)-5-(trifluoromethyl)pyrimidin-4-yl)-1H-imidazol-1-yl)benzyl)azetidin-3-ol] was tested. Which IC50 did it give?
A: ≤ 50 nM

Q: For `Cc1nc(-c2nc(NC3CCN(S(C)(=O)=O)CC3)ncc2C(F)(F)F)cn1-c1ccc(CNC2CC2)cc1F` [Example 356, 4-(1-(4-((Cyclopropylamino)methyl)-2-fluorophenyl)-2-methyl-1H-imidazol-4-yl)-N-(1-(methylsulfonyl)piperidin-4-yl)-5-(trifluoromethyl)pyrimidin-2-amine], which IC50 is on record?
A: ≤ 50 nM

Q: How did the IC50 turn out when `CCN(CC)Cc1ccc(-n2cc(-c3nc(NC4CCN(S(C)(=O)=O)CC4)ncc3C(F)(F)F)nc2C)c(F)c1` [Example 357, 4-(1-(4-((Diethylamino)methyl)-2-fluorophenyl)-2-methyl-1H-imidazol-4-yl)-N-(1-(methylsulfonyl)piperidin-4-yl)-5-(trifluoromethyl)pyrimidin-2-amine] was run?
A: ≤ 50 nM

Q: For `CCN(C)Cc1ccc(-n2cc(-c3nc(NC4CCN(S(C)(=O)=O)CC4)ncc3C(F)(F)F)nc2C)c(F)c1` [Example 358, 4-(1-(4-((Ethyl(methyl)amino)methyl)-2-fluorophenyl)-2-methyl-1H-imidazol-4-yl)-N-(1-(methylsulfonyl)piperidin-4-yl)-5-(trifluoromethyl)pyrimidin-2-amine], which IC50 is on record?
A: ≤ 50 nM

Q: Which IC50 does the source give for `CCNCc1ccc(-n2cc(-c3nc(NC4CCN(S(C)(=O)=O)CC4)ncc3C(F)(F)F)nc2C)c(F)c1` [Example 359, 4-(1-(4-((Ethylamino)methyl)-2-fluorophenyl)-2-methyl-1H-imidazol-4-yl)-N-(1-(methylsulfonyl)piperidin-4-yl)-5-(trifluoromethyl)pyrimidin-2-amine] here?
A: ≤ 50 nM

Q: With `CC(C)NCc1cccc(-n2cnc(-c3nc(NC4CCN(S(C)(=O)=O)CC4)ncc3C(F)(F)F)c2)c1Cl` [Example 360, 4-(1-(2-Chloro-3-((isopropylamino)meth-yl)phenyl)-1H-imidazol-4-yl)-N-(1-(methylsulfonyl)piperidin-4-yl)-5-(trifluoromethyl)pyrimi-din-2-amine] as the compound, how does the IC50 read?
A: ≤ 50 nM

Q: How did the IC50 turn out when `CCNCc1cccc(-n2cnc(-c3nc(NC4CCN(S(C)(=O)=O)CC4)ncc3C(F)(F)F)c2)c1Cl` [Example 361, 4-(1-(2-Chloro-3-((ethylamino)methyl)phe-nyl)-1H-imidazol-4-yl)-N-(1-(methylsulfonyl)piperidin-4-yl)-5-(trifluoromethyl)pyrimi-din-2-amine] was run?
A: ≤ 50 nM

Q: With `CC1(O)CN(Cc2cccc(-n3cnc(-c4nc(NC5CCN(S(C)(=O)=O)CC5)ncc4C(F)(F)F)c3)c2Cl)C1` [Example 362, 1-(2-Chloro-3-(4-(2-((1-(methylsulfonyl)piperidin-4-yl)amino)-5-(trifluoromethyl)pyrimi-din-4-yl)-1H-imidazol-yl)benzyl)-3-methylazetidin-3-ol] as the compound, how does the IC50 read?
A: ≤ 50 nM

Q: Which IC50 does the source give for `C[C@@]1(O)CCN(Cc2cccc(-n3cnc(-c4nc(NC5CCN(S(C)(=O)=O)CC5)ncc4C(F)(F)F)c3)c2Cl)C1` [Example 363, (R)-1-(2-Chloro-3-(4-(2-((1-(methylsulfonyl)piperidin-4-yl)amino)-5-(trifluoromethyl)pyrimi-din-4-yl)-1H-imidazol-1-yl)benzyl)-3-methylpyrrolidin-3-ol] here?
A: ≤ 50 nM

Q: How did the IC50 turn out when `CS(=O)(=O)N1CCC(Nc2ncc(C(F)(F)F)c(-c3cn(-c4cccc(CN5CC[C@@H](O)C5)c4Cl)cn3)n2)CC1` [Example 364, (R)-1-(2-Chloro-3-(4-(2-((1-(methyslulfonyl)piperidin-4-yl)amino)-5-(trifluoromethyl)pyrimi-din-4-yl)-1H-imidazol-1-yl)benzyl)pyrrolidin-3-ol] was run?
A: ≤ 50 nM

Q: With `CS(=O)(=O)N1CCC(Nc2ncc(C(F)(F)F)c(-c3cn(-c4cccc(CN5CC[C@H](O)C5)c4Cl)cn3)n2)CC1` [Example 365, (S)-1-(2-Chloro-3-(4-(2-((1-(methylsulfonyl)piperidin-4-yl)amino)-5-(trifluoromethyl)pyrimi-din-4-yl)-1H-imidazol-1-yl)benzyl)pyrrolidin-3-ol] as the compound, how does the IC50 read?
A: ≤ 50 nM

Q: How did the IC50 turn out when `CS(=O)(=O)N1CCC(Nc2ncc(C(F)(F)F)c(-c3cn(-c4cccc(CN5CCC5)c4Cl)cn3)n2)CC1` [Example 366, 4-(1-(3-(Azetidin-1-ylmethyl)-2-chlorophenyl)-1H-imidazol-4-yl)-N-(1-(methylsulfonyl)piperidin-4-yl)-5-(trifluoromethyl)pyrimi-din-2-amine] was run?
A: ≤ 50 nM

Q: With `CS(=O)(=O)N1CCC(Nc2ncc(C(F)(F)F)c(-c3cn(-c4cccc(CNC5CCOC5)c4Cl)cn3)n2)CC1` (stereo not drawn) [Example 367, 4-(1-(2-Chloro-3-(((tetrahydrofuran-3-yl)amino)methyl)phenyl)-1H-imidazol-4-yl)-N-(1-(methylsulfonyl)piperidin-4-yl)-5-(trifluoromethyl)pyrimi-din-2-amine] as the compound, how does the IC50 read?
A: ≤ 50 nM

Q: `CS(=O)(=O)N1CCC(Nc2ncc(C(F)(F)F)c(-c3cn(-c4cccc(CNC5CCOCC5)c4Cl)cn3)n2)CC1` [Example 368, 4-(1-(2-Chloro-3-(((tetrahydro-2H-pyran-4-yl)amino)methyl)phenyl)-1H-imidazol-4-yl)-N-(1-(methylsulfonyl)piperidin-4-yl)-5-(trifluoromethyl)pyrimi-din-2-amine] was tested. Which IC50 did it give?
A: ≤ 50 nM

From patent US11427567B2, “Imidazolyl pyrimidinylamine compounds as CDK2 inhibitors” (Incyte Corporation, priority 2019, dated 2022)
